Test results reported in the supplement of paper PMC10307832.

Columns and labels:
Assay in all cases: relative viability (nuclei count vs DMSO), 5 days (fraction); higher = more cells survive
[1] = compound: CC1=C(C=CC(=C1)[N+](=O)[O-])NS(=O)(=O)C2=C(C=CC(=C2)Cl)Cl [FH535] + CC(=O)Nc1cccc(-n2c(=O)n(C3CC3)c(=O)c3c(Nc4ccc(I)cc4F)n(C)c(=O)c(C)c32)c1 [Trametinib] (partner 0.02 µM)
Procedure, shortened: (§1)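 The day after seeding in 1536-well plates, lung cancer cell lines were treated by pin tool with a single drug, or with a fixed anchor-drug dose together with five library-drug doses (not always all listed) in √10 steps. After 5 days, a combined fix-and-stain solution (final 0.05% Triton X-100, 1% formaldehyde, 1 ug/ml Hoechst) was added. Nuclei counted on 4× images gave relative viability as treated counts over vehicle counts, reported as the median of duplicate plates.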

[2] = compound: CC1=C(C=CC(=C1)[N+](=O)[O-])NS(=O)(=O)C2=C(C=CC(=C2)Cl)Cl [FH535] + CS(=O)(=O)N1CCN(Cc2cc3nc(-c4cccc5[nH]ncc45)nc(N4CCOCC4)c3s2)CC1 [Pictilisib] (partner 1 µM)
Procedure, shortened: as §1

[3] = compound: CC1=C(C=CC(=C1)[N+](=O)[O-])NS(=O)(=O)C2=C(C=CC(=C2)Cl)Cl [FH535] + C[C@@H](Oc1cc(-c2cnn(C3CCNCC3)c2)cnc1N)c1c(Cl)ccc(F)c1Cl [Crizotinib] (partner 1 µM)
Procedure, shortened: as §1

[4] = compound: CC1=C(C=CC(=C1)[N+](=O)[O-])NS(=O)(=O)C2=C(C=CC(=C2)Cl)Cl [FH535] + NC(=O)Nc1cc(-c2cccc(F)c2)sc1C(=O)N[C@H]1CCCNC1 [AZD7762] (partner 0.2 µM)
Procedure, shortened: as §1

[5] = compound: CC1=C(C=CC(=C1)[N+](=O)[O-])NS(=O)(=O)C2=C(C=CC(=C2)Cl)Cl [FH535] + O=C(c1cc(Cc2n[nH]c(=O)c3ccccc23)ccc1F)N1CCN(C(=O)C2CC2)CC1 [Olaparib] (partner 8 µM)
Procedure, shortened: as §1

Cell Line | relative viability ([1]; first compound 0.04 µM) | relative viability ([1]; first compound 0.1265 µM) | relative viability ([1]; first compound 0.4 µM) | relative viability ([1]; first compound 1.265 µM) | relative viability ([2]; first compound 0.04 µM) | relative viability ([2]; first compound 0.1265 µM) | relative viability ([2]; first compound 0.4 µM) | relative viability ([2]; first compound 1.265 µM) | relative viability ([3]; first compound 0.04 µM) | relative viability ([3]; first compound 0.1265 µM) | relative viability ([3]; first compound 0.4 µM) | relative viability ([3]; first compound 1.265 µM) | relative viability ([4]; first compound 0.04 µM) | relative viability ([4]; first compound 0.1265 µM) | relative viability ([4]; first compound 0.4 µM) | relative viability ([4]; first compound 1.265 µM) | relative viability ([5]; first compound 0.04 µM) | relative viability ([5]; first compound 0.1265 µM) | relative viability ([5]; first compound 0.4 µM) | relative viability ([5]; first compound 1.265 µM)
HCC-827 | 0.504 | 0.545 | 0.538 | 0.42 | 0.894 | 1 | 0.824 | 0.728 | 0.924 | 0.872 | 0.904 | 0.564 | 0.203 | 0.205 | 0.278 | 0.221 | 0.627 | 0.676 | 0.574 | 0.359
NCI-H1666 | 0.861 | 0.869 | 0.905 | 0.69 | 0.481 | 0.443 | 0.404 | 0.4 | 1.06 | 0.979 | 0.956 | 0.871 | 0.727 | 0.899 | 0.772 | 0.747 | 0.742 | 0.731 | 0.756 | 0.725
SK-MES-1 | 0.503 | 0.541 | 0.577 | 0.552 | 0.329 | 0.384 | 0.365 | 0.411 | 0.975 | 1.01 | 0.973 | 0.855 | – | – | – | – | 0.729 | 0.756 | 0.6 | 0.497
201T | 0.718 | 0.72 | 0.69 | 0.562 | 0.662 | 0.726 | 0.632 | 0.627 | 0.99 | 1.09 | 0.975 | 0.875 | 0.594 | 0.728 | 0.62 | 0.696 | 0.812 | 0.856 | 0.827 | 0.59
RERF-LC-KJ | 0.862 | 0.921 | 0.869 | 0.744 | 0.49 | 0.534 | 0.478 | 0.392 | 0.856 | 0.826 | 0.86 | 0.671 | 0.905 | 1.02 | 0.931 | 0.704 | 0.904 | 0.891 | 0.856 | 0.516
NCI-H3122 | 0.188 | 0.274 | 0.2 | 0.22 | 0.583 | 0.585 | 0.57 | 0.564 | 0.261 | 0.282 | 0.253 | 0.285 | 1.03 | 0.98 | 0.984 | 0.933 | 0.631 | 0.6 | 0.581 | 0.48
LXF-289 | 0.726 | 0.689 | 0.62 | 0.436 | 0.69 | 0.793 | 0.758 | 0.681 | 0.795 | 0.832 | 0.74 | 0.567 | 1.05 | 1.1 | 1.03 | 0.873 | 0.916 | 1.06 | 1.03 | 0.587
EKVX | 0.319 | 0.391 | 0.292 | 0.293 | 0.411 | 0.401 | 0.411 | 0.425 | 0.824 | 1.07 | 0.998 | 0.609 | 0.77 | 0.661 | 0.631 | 0.559 | 0.737 | 0.906 | 0.903 | 0.762
